Source: paper PMC11284788, “NN1213 – A Potent, Long-Acting, and Selective Analog of Human Amylin” (Journal of Medicinal Chemistry, 2024)
Where two headings read alike, the source gives them in different places. Numbered stars: 1 amine (or outer) side, 2 acyl side, 3 side chain; on linkers, the order of the positions; unused ones are H or OH. Bridge positions count the residues as written; N and C are the ends. Side chains are listed from the residue outwards. Peptide text beside a SMILES is read from it. * marks the point of attachment. C20 diacid = O=C(O)CCCCCCCCCCCCCCCCCCC(=O)*; γGlu = O=C(O)[C@H](CCC(=O)[*:2])N[*:1]

Legend:
hAMY3R = target: T1, hAMY3R (Homo sapiens, UniProt O60896+P30988); assay: scintillation proximity binding assay, hAMY3R membranes; design: expressed in transfected cells; host or cells: BHK tk-ts 13, transient co-transfection; membranes for the SPA, whole cells for the species-specific assays; conditions: for ratio hCTR/hAMY3R: ratio of binding IC50 values
T1 sequence (P30988 25-474): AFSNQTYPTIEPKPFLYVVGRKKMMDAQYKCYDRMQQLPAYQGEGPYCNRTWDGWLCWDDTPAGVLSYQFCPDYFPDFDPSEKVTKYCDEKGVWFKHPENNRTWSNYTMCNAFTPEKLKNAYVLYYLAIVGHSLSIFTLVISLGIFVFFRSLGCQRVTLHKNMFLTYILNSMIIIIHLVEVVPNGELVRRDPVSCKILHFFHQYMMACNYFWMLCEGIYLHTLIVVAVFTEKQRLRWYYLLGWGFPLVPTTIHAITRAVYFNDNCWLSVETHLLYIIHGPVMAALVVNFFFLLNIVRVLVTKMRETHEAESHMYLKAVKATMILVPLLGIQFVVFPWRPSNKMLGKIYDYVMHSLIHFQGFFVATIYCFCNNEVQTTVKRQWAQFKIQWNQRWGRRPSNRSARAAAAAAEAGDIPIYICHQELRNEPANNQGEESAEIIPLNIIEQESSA
T1 sequence (O60896 24-148 partner): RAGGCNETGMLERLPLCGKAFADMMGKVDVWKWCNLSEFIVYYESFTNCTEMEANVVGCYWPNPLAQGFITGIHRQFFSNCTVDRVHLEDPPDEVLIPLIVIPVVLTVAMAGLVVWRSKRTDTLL

[1] = HMWP content by size-exclusion chromatography; assay type: physicochemical; conditions: covalent dimers and polymers prior to fibril formation testing, SEC, % of total absorbance area at 215 nm
In short: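 HMWP percentage is the covalent dimer/polymer peak area relative to total absorbance area, with extinction coefficients taken as equal to the main peak. Isocratic size-exclusion elution used 50% (v/v) 2-propanol containing 0.5 M NaCl and phosphate buffer; measured on analogs prior to fibril assays.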

[2] = SPA binding assay, Tables S13 and S15, read-out: hAMY3R pIC50 (converted)
[3] = SPA, BHK cell membranes, 125I-rat amylin, 120 min 25 °C, read-out: hAMY3R IC50

IC50 (hAMY3R; [2]) [nM]	IC50 (hAMY3R; [3]) [nM]	ratio hCTR/hAMY3R (hAMY3R)	HMWP ([1]; analogs 1–9 (pH 7.5 series)) [%]	HMWP ([1]; analogs 10–21 (pH 4.0 series)) [%]	hAMY3R pIC50 (hAMY3R; SPA binding assay, Tables S13 and S15)	Structure (SMILES)
1.12	1.12	27	7	–	–	CC(C)C[C@H](NC(=O)[C@H](CCCNC(=N)N)NC(=O)[C@H](CCC(N)=O)NC(=O)[C@@H](NC(=O)[C@H](C)NC(=O)[C@@H]1CSSC[C@H](NC(=O)[C@@H](N)CCCCNC(=O)CC[C@H](NC(=O)CC[C@H](NC(=O)CCCCCCCCCCCCCCCCCCC(=O)O)C(=O)O)C(=O)O)C(=O)N[C@@H](CC(N)=O)C(=O)N[C@@H]([C@@H](C)O)C(=O)N[C@@H](C)C(=O)N[C@@H]([C@@H](C)O)C(=O)N1)[C@@H](C)O)C(=O)N[C@@H](C)C(=O)N[C@@H](CC(=O)O)C(=O)N[C@@H](Cc1ccccc1)C(=O)N[C@@H](CC(C)C)C(=O)N[C@@H](CCCNC(=N)N)C(=O)N[C@@H](Cc1c[nH]cn1)C(=O)N[C@@H](CO)C(=O)N[C@@H](CO)C(=O)N1CCC[C@H]1C(=O)N[C@@H](CC(N)=O)C(=O)N[C@@H](Cc1ccccc1)C(=O)NCC(=O)N[C@@H](C)C(=O)N1CCC[C@H]1C(=O)N[C@@H](CC(C)C)C(=O)N[C@@H](CO)C(=O)N[C@@H](CO)C(=O)N[C@H](C(=O)N[C@@H](CC(N)=O)C(=O)N[C@H](C(=O)NCC(=O)N[C@@H](CO)C(=O)N[C@@H](CC(=O)O)C(=O)N[C@H](C(=O)N[C@@H](Cc1ccc(O)cc1)C(N)=O)[C@@H](C)O)C(C)C)[C@@H](C)O [Peptide 5] (H-K([γGlu-γGlu-C20 diacid])CNTATCATQRLADFLRHSSPNFGAPLSSTNVGSDTY-NH2; disulfide 2-7)
–	–	55	2.5	–	–	CC[C@H](C)[C@H](NC(=O)[C@H](C)NC(=O)CNC(=O)[C@H](Cc1ccccc1)NC(=O)[C@H](CC(N)=O)NC(=O)[C@@H]1CCCN1C(=O)[C@H](CO)NC(=O)[C@H](CO)NC(=O)[C@H](Cc1c[nH]cn1)NC(=O)[C@H](CCCNC(=N)N)NC(=O)[C@H](CC(C)C)NC(=O)[C@H](Cc1ccccc1)NC(=O)[C@H](CC(=O)O)NC(=O)[C@H](C)NC(=O)[C@H](CC(C)C)NC(=O)[C@H](CCCNC(=N)N)NC(=O)[C@H](CCC(N)=O)NC(=O)[C@@H](NC(=O)[C@H](C)NC(=O)[C@@H]1CSSC[C@H](NC(=O)[C@@H](N)CCCCNC(=O)CC[C@H](NC(=O)CC[C@H](NC(=O)CCCCCCCCCCCCCCCCCCC(=O)O)C(=O)O)C(=O)O)C(=O)N[C@@H](CC(N)=O)C(=O)N[C@@H]([C@@H](C)O)C(=O)N[C@@H](C)C(=O)N[C@@H]([C@@H](C)O)C(=O)N1)[C@@H](C)O)C(=O)N1CCC[C@H]1C(=O)N[C@@H](CO)C(=O)N[C@@H](CO)C(=O)N[C@H](C(=O)N[C@@H](CC(N)=O)C(=O)N[C@H](C(=O)NCC(=O)N[C@@H](CO)C(=O)N[C@@H](CC(=O)O)C(=O)N[C@H](C(=O)N[C@@H](Cc1ccc(O)cc1)C(N)=O)[C@@H](C)O)C(C)C)[C@@H](C)O [Peptide 6] (H-K([γGlu-γGlu-C20 diacid])CNTATCATQRLADFLRHSSPNFGAIPSSTNVGSDTY-NH2; disulfide 2-7)
0.891	0.885	48	–	3.0	–	CC[C@H](C)[C@H](NC(=O)[C@H](C)NC(=O)CNC(=O)[C@H](Cc1ccccc1)NC(=O)[C@H](CC(N)=O)NC(=O)[C@@H]1CCCN1C(=O)[C@H](CO)NC(=O)[C@H](CO)NC(=O)[C@H](Cc1c[nH]cn1)NC(=O)[C@H](CCCNC(=N)N)NC(=O)[C@H](CC(C)C)NC(=O)[C@H](Cc1ccccc1)NC(=O)[C@H](CC(N)=O)NC(=O)[C@H](C)NC(=O)[C@H](CC(C)C)NC(=O)[C@H](CCCNC(=N)N)NC(=O)[C@H](CCC(N)=O)NC(=O)[C@@H](NC(=O)[C@H](C)NC(=O)[C@@H]1CSSC[C@H](NC(=O)[C@@H](N)CCCCNC(=O)CC[C@H](NC(=O)CCCCCCCCCCCCCCCCCCC(=O)O)C(=O)O)C(=O)N[C@@H](CC(N)=O)C(=O)N[C@@H]([C@@H](C)O)C(=O)N[C@@H](C)C(=O)N[C@@H]([C@@H](C)O)C(=O)N1)[C@@H](C)O)C(=O)N1CCC[C@H]1C(=O)N[C@@H](CO)C(=O)N[C@@H](CO)C(=O)N[C@H](C(=O)N[C@@H](CC(N)=O)C(=O)N[C@H](C(=O)NCC(=O)N[C@@H](CO)C(=O)N[C@@H](CCCCN)C(=O)N[C@H](C(=O)N[C@@H](Cc1ccc(O)cc1)C(N)=O)[C@@H](C)O)C(C)C)[C@@H](C)O [Peptide 14]
–	–	45	–	0.3	9.46	CC[C@H](C)[C@H](NC(=O)[C@H](C)NC(=O)CNC(=O)[C@H](Cc1ccccc1)NC(=O)[C@H](CC(N)=O)NC(=O)[C@@H]1CCCN1C(=O)[C@H](CO)NC(=O)[C@H](CO)NC(=O)[C@H](Cc1c[nH]cn1)NC(=O)[C@H](CCCNC(=N)N)NC(=O)[C@H](CC(C)C)NC(=O)[C@H](Cc1ccccc1)NC(=O)[C@H](CC(N)=O)NC(=O)[C@H](C)NC(=O)[C@H](CC(C)C)NC(=O)[C@H](CCCNC(=N)N)NC(=O)[C@H](CCC(N)=O)NC(=O)[C@@H](NC(=O)[C@H](C)NC(=O)[C@@H]1CSSC[C@H](NC(=O)[C@H](CCCNC(=N)N)NC(=O)CNC(=O)CC[C@H](NC(=O)CCCCCCCCCCCCCCCCCCC(=O)O)C(=O)O)C(=O)N[C@@H](CC(N)=O)C(=O)N[C@@H]([C@@H](C)O)C(=O)N[C@@H](C)C(=O)N[C@@H]([C@@H](C)O)C(=O)N1)[C@@H](C)O)C(=O)N1CCC[C@H]1C(=O)N[C@@H](CO)C(=O)N[C@@H](CO)C(=O)N[C@H](C(=O)N[C@@H](CC(N)=O)C(=O)N[C@H](C(=O)NCC(=O)N[C@@H](CO)C(=O)N[C@@H](Cc1c[nH]cn1)C(=O)N[C@H](C(=O)N[C@@H](Cc1ccc(O)cc1)C(N)=O)[C@@H](C)O)C(C)C)[C@@H](C)O [Peptide 19] ({C20 diacid-γGlu}-GRCNTATCATQRLANFLRHSSPNFGAIPSSTNVGSHTY-NH2; disulfide 3-8)
